From patent US8586547B2, “CDC45L peptides and vaccines including the same” (Oncotherapy Science, Inc., priority 2009, dated 2013)
Like-named read-outs stand apart in the source and are kept apart here. Where a SMILES comes first, the peptide text is derived from it.

Key:
[1] = test system: C1R-A2402 cells pulsed with CDC45L derived peptides
Experimental: The DCs were pulsed with 20 micro-g/mL of the candidate peptides in the presence of 4 micro-g/mL beta 2-microglobulin (Sigma-Aldrich) for 2 h at 37 degrees C. in AIM-V (Invitrogen) supplemented with 2% heat-inactivated autologous plasma. The cells were then irradiated (40 Gy) and incubated with the isolated CD8^+ T cells as described previously (Imai K et al., Clin Cancer Res 2008; 14:6487-95, Harao M et al., Int J Cancer 2008; 123:2616-25). Two additional stimulations with peptide-loaded autologous PHA-blasts were performed on days 7 and 14. The PHA-blasts were generated as described previously (Inoue M et al., Immunol Lett 2009; 126:67-72), and these PHA-blasts (5×10^5) were pulsed with 20 micro-g/mL peptides for 3 h, irradiated (100 Gy) and cultured with the 2×10^6 CD8^+ T cells in the presence of 10 ng/mL human recombinant IL-7 (Wako, Osaka, Japan). After 2 days, the cultures were supplemented with 20 IU/mL human recombinant IL-2 (PeproTec, Inc.).
Six days after the last stimulation, the antigen-specific responses of the induced CTLs were investigated. Two additional weekly stimulations with peptide-loaded autologous PHA-blasts were carried out on day 7 and 14. Autologous CD 14^− CD8^− cells enriched with CD4^+ T cells were cultured with PHA (2 micro-g/mL) and human recombinant IL-2 (100 IU/mL) for 2 days, and cells were washed with PBS and cultured with human recombinant IL-2 (100 IU/mL) for additional three days. These PHA-blasts (5×10^5) were pulsed with 50 micro-g/mL peptides for 2 hours at 37 degrees C. in AIM-V (Invitrogen) supplemented with 2% heat-inactivated autologous plasma. The cells were then irradiated (100 Gy) and incubated with the 2×10^6 CD8^+ T cells. These cultures were set up in 24-well plates using the medium supplemented with 5 ng/mL human recombinant IL-7, IL-2, and IL-15. Six days after the last stimulation, the antigen-specific responses of the induced CTLs were investigated by an IFN-gamma ELISPOT assay, CD107a mobilization assay and ^51Cr release assay as described previously (Komori H et al. Clin Cancer Res 2006; 12: 2689-97) and below.
The frequency of cells producing interferon (IFN)-gamma per 1×10^5 CTLs upon stimulation with Lu99 cells (1×10^4/well) or peptide-pulsed C1R-A2402 and T2 cells (1×10^4/well) was analyzed by an ELISPOT assay (Human IFN-gamma ELISPOT kit, BD Biosciences) as previously described (Komori H et al., Clin Cancer Res 2006; 12:2689-97, Bourgault V I et al., Cancer Res 2004; 64:8761-6). The CTLs were co-cultured with cancer cells or peptide-pulsed C1R-A2402 and T2 cells as target cells (5×10^3/well) at the indicated effector-to-target ratio, and a standard ^51Cr-release assay was performed as described previously (Yokomine K et al., Int J Cancer 2009; 126:2153-63, Monji M et al., Clin Cancer Res 2004; 10:6047-57). The blocking of HLA-class I by anti-human HLA class I mAb, W6/32 (IgG2a, Santa Cruz Biotechnology), or HLA-class II by anti-human HLA-DR mAb (IgG2a, BD Biosciences), was performed as described previously (Komori H et al., Clin Cancer Res 2006; 12:2689-97, Makita M et al., Clin Cancer Res 2002; 8:2626-31).

[2] = test system: EBC-1 cells (CDC45L+, HLA-A24+); type: cell-based, human
Experimental: (§1) To knock down the expression of CDC45L in lung cancer cells, CDC45L small interfering (si) RNAs (human Cdc45 siRNA, sc-35044: a pool of three target-specific 20-25 nt siRNAs; Santa Cruz) were added at a final concentration of 150 nM to 40-60% confluent cells. Lipofectamine™ 2000 (Invitrogen) was used to transfect the siRNAs into cells, according to the manufacturer's instructions. GFP siRNAs were used as an irrelevant control. The treated cells were washed once with PBS, and adherent cells were collected at 72 h after transfection and used as target cells for the ^51Cr-release assay. To investigate the ability of siRNA to suppress CDC45L expression, western blot analysis was performed as described previously (Nakatsura T et al., Biochem Biophys Res Commun 2003; 306:16-25). Cancer cells were washed once with PBS at 48 h after transfection, and adherent cells were collected and lysed to analyze the expression levels of CDC45L for comparison with those of negative control cells. Beta-actin was used as the internal control. Rabbit polyclonal antibody reactive to CDC45L (sc-20685, Santa Cruz Biotechnology) was used as the primary antibody.

[3] = test system: Panc1 cells (CDC45L+, HLA-A2+, HLA-A24-); experiment: 51Cr-release assay against Panc1 cells; conditions: not inhibited by control anti-HLA-class II mAb
Experimental: (§2) The CTLs were co-cultured with cancer cells or peptide-pulsed C1R-A2402 and T2 cells as target cells (5×10^3/well) at the indicated effector-to-target ratio, and a standard ^51Cr-release assay was performed as described previously (Yokomine K et al., Int J Cancer 2009; 126:2153-63, Monji M et al., Clin Cancer Res 2004; 10:6047-57). The blocking of HLA-class I by anti-human HLA class I mAb, W6/32 (IgG2a, Santa Cruz Biotechnology), or HLA-class II by anti-human HLA-DR mAb (IgG2a, BD Biosciences), was performed as described previously (Komori H et al., Clin Cancer Res 2006; 12:2689-97, Makita M et al., Clin Cancer Res 2002; 8:2626-31).

[4] = test system: T2 cells pulsed with the peptide; conditions: CTL lines from HLA-A2 positive healthy donor; not against HIV-A2 peptide-loaded T2 cells
Experimental: PBMCs were isolated from HLA-A24 or HLA-A2 positive Japanese healthy donors and lung cancer patients, and the peripheral monocyte-derived dendritic cells (DCs) were generated as described previously (Harao M et al., Int J Cancer 2008; 123:2616-25, Naito K et al., Int J Oncol 2006; 28:1481-9). The DCs were pulsed with 20 micro-g/mL of the candidate peptides in the presence of 4 micro-g/mL beta 2-microglobulin (Sigma-Aldrich) for 2 h at 37 degrees C. in AIM-V (Invitrogen) supplemented with 2% heat-inactivated autologous plasma. The cells were then irradiated (40 Gy) and incubated with the isolated CD8^+ T cells as described previously (Imai K et al., Clin Cancer Res 2008; 14:6487-95, Harao M et al., Int J Cancer 2008; 123:2616-25). Two additional stimulations with peptide-loaded autologous PHA-blasts were performed on days 7 and 14. […]
The frequency of cells producing interferon (IFN)-gamma per 1×10^5 CTLs upon stimulation with Lu99 cells (1×10^4/well) or peptide-pulsed C1R-A2402 and T2 cells (1×10^4/well) was analyzed by an ELISPOT assay (Human IFN-gamma ELISPOT kit, BD Biosciences) as previously described (Komori H et al., Clin Cancer Res 2006; 12:2689-97, Bourgault V I et al., Cancer Res 2004; 64:8761-6). […]

[5] = test system: Lu99 cells (CDC45L+, HLA-A24+); experiment: 51Cr-release assay against Lu99 lung cancer cells; type: cell-based, human
Experimental: as §1

[6] = test system: A549 cells (CDC45L+, HLA-A24-); type: cell-based, human
Experimental: as §2

[7] = Immunization of BALB/c mice with peptides emulsified in incomplete Freund adjuvant; type: in vivo; conditions: long-term observation period, unpublished data

| pathological changes, such as lymphocyte infiltration or tissue destruction [7] | signs of autoimmune diseases, such as weight loss, diarrhea and skin abnormalities [7] | Structure (SMILES) | cytotoxic activity of CTL lines against peptide-pulsed C1R-A2402 cells [1] | cytotoxicity of peptide-induced CTLs against EBC-1 cells [2] | further results |
| --- | --- | --- | --- | --- | --- |
|  |  | CC(C)C[C@H](NC(=O)[C@H](Cc1ccccc1)NC(=O)[C@@H](N)CCCCN)C(=O)N[C@@H](C)C(=O)N[C@@H](CO)C(=O)N[C@@H](CC(=O)O)C(=O)N[C@H](C(=O)N[C@H](C(=O)N[C@@H](Cc1ccccc1)C(=O)O)C(C)C)C(C)C [CDC45L-A24-9-370-7] (H-KFLASDVVF-OH) | exhibited cytotoxic activity | exhibited cytotoxicity |  |
|  |  | CC[C@H](C)[C@H](NC(=O)[C@H](CC(C)C)NC(=O)[C@H](C)NC(=O)[C@H](CC(=O)O)NC(=O)[C@H](CC(C)C)NC(=O)[C@H](Cc1ccccc1)NC(=O)[C@@H](N)CCCCN)C(=O)N[C@@H](CO)C(=O)N[C@@H](CC(C)C)C(=O)O [CDC45L-A24-9-556-4] (H-KFLDALISL-OH) | exhibited cytotoxic activity |  | cytotoxicity against Panc1 cells in presence of blocking mAb against HLA-class I (W6/32) [3]: significantly inhibited; cytotoxicity of CTL lines against peptide-pulsed T2 cells [4]: exhibited cytotoxicity; cytotoxicity of CTL lines against C1R-A2402 cells loaded with the peptide [1]: not against; cytotoxicity of peptide-induced CTLs against Lu99 cells transfected with CDC45L specific siRNAs ([5]; CDC45L-, HLA-A24+ target cells): not against; cytotoxicity of peptide-induced CTLs against Lu99 cells ([5]; Lu99 cells and Lu99 cells transfected with control GFP siRNAs): exhibited cytotoxicity |
| did not exhibit pathological changes | no signs of autoimmune diseases | CC[C@H](C)[C@H](NC(=O)[C@H](CCC(N)=O)NC(=O)[C@@H](NC(=O)[C@H](CC(=O)O)NC(=O)[C@H](CC(N)=O)NC(=O)[C@H](Cc1ccc(O)cc1)NC(=O)[C@@H](N)C(C)C)[C@@H](C)O)C(=O)N[C@@H](CCCCN)C(=O)N[C@@H](CC(C)C)C(=O)O [CDC45L-A24-9-109-2] (H-VYNDTQIKL-OH) | exhibited cytotoxic activity |  | cytotoxicity of peptide-induced CTLs against A549 cells [6]: not against; cytotoxicity of peptide-induced CTLs against Lu99 cells [5]: exhibited cytotoxicity; cytotoxicity of peptide-induced CTLs against Lu99 cells transfected with CDC45L specific siRNAs [5]: not against |
| did not exhibit pathological changes | no signs of autoimmune diseases | CC(C)C[C@H](NC(=O)[C@H](CCCCN)NC(=O)[C@H](Cc1ccccc1)NC(=O)[C@H](CCCNC(=N)N)NC(=O)[C@H](C)NC(=O)[C@H](C)NC(=O)[C@@H](NC(=O)[C@H](Cc1ccc(O)cc1)NC(=O)[C@@H](N)CO)[C@@H](C)O)C(=O)O [CDC45L-A24-9-294-3] (H-SYTAARFKL-OH) | exhibited cytotoxic activity | exhibited cytotoxicity |  |
|  |  | CC[C@H](C)[C@H](NC(=O)[C@H](CC(C)C)NC(=O)[C@H](C)NC(=O)[C@H](CC(=O)O)NC(=O)[C@H](CC(C)C)NC(=O)[C@H](Cc1ccccc1)NC(=O)[C@@H](N)CCCCN)C(=O)N[C@@H](CO)C(=O)N[C@@H](CC(C)C)C(=O)N[C@@H](CC(C)C)C(=O)O [CDC45L-A24-10-556-12] (H-KFLDALISLL-OH) | exhibited cytotoxic activity |  |  |
